Patent publication US5221675A, “Aza-spirocyclic compounds that enhance cholinergic neurotransmission” (Abbott Laboratories, priority 1991, dated 1993)

Tests used:
rat brain receptor sites = settings: cited from earlier work
[1] = rat; cited from earlier work
M1 muscarinic receptor = target: T1, M1 muscarinic receptor (Rattus norvegicus, UniProt P08482); assay: Competition with [3H]pirenzepine at cortical M1 muscarinic receptors; assay type: binding; settings: Table 1; [3H]pirenzepine, rat fronto-parietal cortex, 25° C., pH 7.4; read-out: Ki @ M1 RECEPTOR
T1 construct: from tissue; host or cells: adult rat fronto-parietal cortex membranes (homogenate)
T1 sequence (P08482 1-460): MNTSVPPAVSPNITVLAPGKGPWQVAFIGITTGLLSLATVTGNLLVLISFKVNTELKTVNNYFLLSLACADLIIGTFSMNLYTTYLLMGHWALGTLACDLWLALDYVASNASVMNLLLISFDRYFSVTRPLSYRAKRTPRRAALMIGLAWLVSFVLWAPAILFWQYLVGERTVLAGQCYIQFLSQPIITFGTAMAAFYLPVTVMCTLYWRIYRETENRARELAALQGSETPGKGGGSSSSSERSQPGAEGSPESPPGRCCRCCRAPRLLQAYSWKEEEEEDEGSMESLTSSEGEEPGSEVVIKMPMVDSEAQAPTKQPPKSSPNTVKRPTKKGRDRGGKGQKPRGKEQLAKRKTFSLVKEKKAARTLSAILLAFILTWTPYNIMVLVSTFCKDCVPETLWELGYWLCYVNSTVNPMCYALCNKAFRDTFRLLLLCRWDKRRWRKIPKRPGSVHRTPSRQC

M2 muscarinic receptor = M2 muscarinic receptor (Rattus norvegicus, UniProt P10980); assay type: binding; settings: read-out: Ki @ M2 RECEPTOR; Table 1; [3H]QNB, rat pons-medulla, 25° C., pH 7.4
M2 muscarinic receptor, sequence (P10980 whole entry): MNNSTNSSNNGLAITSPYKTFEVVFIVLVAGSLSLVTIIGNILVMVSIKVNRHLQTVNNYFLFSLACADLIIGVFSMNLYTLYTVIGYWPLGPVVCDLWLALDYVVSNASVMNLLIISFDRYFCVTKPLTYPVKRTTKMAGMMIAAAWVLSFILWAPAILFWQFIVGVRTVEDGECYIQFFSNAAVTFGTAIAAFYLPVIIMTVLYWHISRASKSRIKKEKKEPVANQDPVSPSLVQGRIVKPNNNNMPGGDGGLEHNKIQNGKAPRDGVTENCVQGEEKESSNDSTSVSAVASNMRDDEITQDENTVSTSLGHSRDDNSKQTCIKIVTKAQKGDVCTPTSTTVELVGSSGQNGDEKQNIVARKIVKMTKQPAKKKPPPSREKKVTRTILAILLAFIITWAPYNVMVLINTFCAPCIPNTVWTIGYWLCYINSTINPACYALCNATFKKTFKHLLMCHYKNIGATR

[2] = system: Rat striatal muscarinic receptors; assay: Agonist intrinsic activity: inhibition of forskolin-activated [3H]cAMP in dissociated rat striatum; assay type: cell-based
Source text: Rat striatal muscarinic receptors are coupled to the inhibition of the conversion of adenosine triphosphate (ATP) to cyclic adenosine monophosphate (cAMP). […] The ATP stores in dissociated rat striatum were labeled with [^3 H]adenine and [^3 H]-cAMP levels were elevated with 10 um forskolin.

DBA mice = assay: Inhibitory (passive) avoidance test, 72 hour retention; assay type: in vivo, mouse
Source text: The inhibitory (or sometimes called passive) avoidance (IA) test is a well accepted animal model of learning/memory used to assess the activity of novel muscarinic agonists to enhance cognitive function (Wanibuchi et al., Eur. J. Pharmacol., 1990, 187:479). Animals are placed in the illuminated (12×14×11 cm) portion of a two-chambered box, from which they enter through a guillotine door to the larger (24×13.5×12 cm) dark compartment of the box. Entry to the dark compartment is accompanied by a mild (0.5 mA), brief (2 seconds) footshock. Initial latencies to cross are recorded, with an imposed 60 second ceiling. Following a 72 hour retention interval, animals are returned to the illuminated chamber, and latency to return to the dark compartment is again recorded, with a ceiling of 180 seconds. No footshock is administered on the test day.
Previous studies have indicated a retention deficit in DBA versus CD1 mice in the 72 hour retention model. Accordingly, adult male DBA mice (n=~15/group) were injected with either the compound of Example 1 or the reference standard RS-86 (0, 0.3, 1.0, or 3.0 mg/kg, i.p.) approximately 45 minutes prior to the training described above. Saline-treated adult male CD1 mice (n=15) served as controls.

DBA and C57BL/6 mice = assay: Mouse plus (water) maze, spatial learning; assay type: in vivo; settings: 0.3 or 1.0 mg/kg i.p.
Procedure: The mouse plus maze probes spatial learning processes (Decker and McGaugh, Brain Res. 1989, 477:29). Animals are placed at the terminus of one arm of a four-arm maze submerged in opaque (powdered milk) 25° C. water. Their task is to locate a stationary escape platform hidden at the end of one arm of the maze. The platform remains in the same position across all 4 days of testing. Six daily trials are conducted, during which choice accuracy (correct or incorrect) and latency to escape (maximum=60 seconds) are recorded. Animals failing to escape within 60 seconds are gently guided to the platform, where they are allowed to sit for 20 seconds.
Accordingly, adult male DBA and C57 mice (n=~10/group) were treated with the compound of Example 1 or RS-86 (0, 0.3, or 1.0 mg/kg, i.p.) approximately 45 minutes prior to 4 consecutive daily water maze sessions. Choice accuracy was assessed daily, with day 4 accuracy serving as the primary measure of learning.

CD1 mice = assay: Locomotor activity in automated activity monitors; assay type: in vivo, mouse
Procedure: Adult male CD1 mice (n=8/group) were injected with the compound of Example 1 or RS-86 (0, 0.3, 1.0, or 3.0 mg/kg, i.p.) approximately 45 minutes prior to placement in automated activity monitors (Omnitech; Columbus, Ohio). These enclosures, measuring 40×40×42 cm, are equipped with a series of photocells and generate measurements of a variety of locomotor activities.

male CD1 mice = assay: Toxicology / side-effects; assay type: in vivo; settings: for Fatalities: 0.3, 1.0, 3.0 mg/kg i.p.; for Tolerability: 0.3 and 1.0 mg/kg i.p.
muscarinic receptors = assay: Initial screening at muscarinic receptors; assay type: binding; settings: words, on Table 1 data
[3] = system: cholinergic receptors located in the heart and cortical tissues; settings: words; cited from earlier work
cardiac receptors = settings: cited from earlier work
cortical receptors = settings: cited from earlier work
[4] = system: parietotemporal cortex of humans; settings: cited from earlier work
[5] = in vivo, cited from earlier work
rats = settings: acutely and chronically administered; cited from earlier work
acetylcholine receptors = settings: chronic administration; cited from earlier work
[6] = system: nigro-striatal dopamine system; settings: chronically administered, after destruction of nigro-striatal dopamine system; cited from earlier work

In the case of `CC1CCCCN1` (racemic) [(+)isomer of (±)2-methylpiperidine, (+)2-methylpiperidine], the “Binding of nicotinic ligand” value (rat brain receptor sites) is given as “enhances the binding of nicotinic ligand”.

In the case of `O=C1NC(=O)C2(CCNCC2)N1c1ccccc1` [1-phenyl-1,3,8-triazaspiro[4,5]decan-2,4-dione], the Metabolite of fluspirilene [1] is given as “major product of the metabolism of the neuroleptic drug, fluspirilene”.

Work on `CC1OC2(CCN(C)CC2)CN1C=O.O=C(O)C(=O)O` (stereo not drawn) [Example 1, 2,8-Dimethyl-1-oxa-3-formyl-3,8-diazaspiro[4,5]decane hydrogen oxalate] yielded a Ki (M1 muscarinic receptor) of 32 µM, a Ki (M2 muscarinic receptor) of 30 µM and an Emax ([2]; Rattus norvegicus, read-out: INTRINSIC ACTIVITY (% relative to carbacol)) of 53%. For the same compound, the “Agonist character at central muscarinic receptor” value ([2]; rat striatum) was “central muscarinic receptor agonist with partial agonist activity”, the “Latencies across dose groups” value (DBA mice; 0, 0.3, 1.0, 3.0 mg/kg i.p., DBA mice) was “latencies were equivalent across all groups” and the “72 hour retention deficit of DBA mice” value (DBA mice; 1.0 mg/kg i.p., U=171.5, z=2.04, p<0.05) was “significant attenuation of the observed retention deficit”. The “72 hour retention deficit of DBA mice” value (DBA mice; 3.0 mg/kg i.p., U=172, z=2.0, p<0.05) was “significant attenuation of the observed retention deficit”, the “Enhancement of learning (choice accuracy)” value (DBA and C57BL/6 mice) was “modest, albeit statistically non-significant, enhancement of learning” and the “Performance of DBA mice versus chance level” value (DBA and C57BL/6 mice; from second day of testing) was “consistently performed above chance levels”. For the same compound, the “Mean horizontal activity counts” value (CD1 mice; all doses (0, 0.3, 1.0, 3.0 mg/kg i.p.)) was “equivalent across all doses”, the “Separation of hypoactivity from cognitive enhancement versus RS-86” value (CD1 mice; compared with RS-86) was “more favorable separation of hypoactivity from the desired activity of cognitive enhancement” and the Signs observed (male CD1 mice; 3.0 mg/kg i.p.) was “some dyspnea and a mild decrease in spontaneous activity”. For the same compound, the Fatalities (male CD1 mice) was “No fatalities”, the Tolerability (male CD1 mice) was “well tolerated” and the “Side-effects in general versus RS-86” value (male CD1 mice; compared with RS-86) was “more benign side-effects”. For the same compound, the “Binding to M1 and M2 muscarinic receptors” value (muscarinic receptors) was “binds to both M1 and M2 muscarinic receptors”.

In the case of `CCN1C(=O)CC2(CCN(C)CC2)C1=O` [RS-86], the “Animals that completely failed to cross to the dark compartment in training” value (DBA mice; 3.0 mg/kg i.p.) is reported as “nine”, the “Training latencies relative to all other groups” value (DBA mice; 3.0 mg/kg i.p., F (4,72)=25.8, p<0.00001) is reported as “elevated relative to all other groups” and the “72 hour retention deficit of untreated DBAs” value (DBA mice; RS-86 0.3-3.0 mg/kg i.p.) is reported as “apparently eliminated the 72 hour retention deficit”. The “Water maze performance in DBA or C57 mice” value (DBA and C57BL/6 mice) was “no beneficial effect on water maze performance”, the Horizontal activity (CD1 mice; 3.0 mg/kg i.p., F (3,28)=29.17, p<0.00001) was “profound and significant [F (3,28)=29.17, p<0.00001] reduction in horizontal activity” and the “Activity versus animals dosed with the compound of Example 1” value (CD1 mice; 0.3 or 1.0 mg/kg i.p.) was “did not significantly differ”. For the same compound, the “Classic signs of cholinostimulation” value (male CD1 mice; 3.0 mg/kg i.p.) was “salivation, lacrimation, urination, defecation, and tremor”, the “Hypothermic response versus similar dose of Example 1” value (male CD1 mice; 3.0 mg/kg i.p.) was “greater hypothermic response” and the Signs observed (male CD1 mice; 3.0 mg/kg i.p.) was “dyspnea and decreased activity”. For the same compound, the Fatalities (male CD1 mice) was “No fatalities”, the Tolerability (male CD1 mice) was “well tolerated” and the Potency and selectivity [3] was “poor potency and lack of selectivity”. For the same compound, the “Agonism at cardiac receptors” value (cardiac receptors) was “full agonist” and the “Agonism at cortical receptors” value (cortical receptors) was “partial agonist”.

For `CNC1(C)C2CCC(C2)C1(C)C` (stereo not drawn) [mecamylamine], the Resting cortical perfusion [4] is given as “reduce resting cortical perfusion”.

In the case of `CN1CCC[C@H]1c1cccnc1` [nicotine], the Oral bioavailability ([5]; po) is given as “poor oral bioavailability”, the Pharmacokinetics [5] is given as “unfavorable pharmacokinetics” and the Cognitive function (rats) is given as “enhance cognitive function in rats”. For the same compound, the “Effect on affinity of acetylcholine for the receptor” value (acetylcholine receptors) was “without affecting the affinity of acetylcholine for the receptor”, the “Up-regulation of the number of acetylcholine receptors” value (acetylcholine receptors) was 50-100% and the “Action on neuronal and vascular functions” value [6] was “regenerative/protective action”.
